Where two headings read alike, the source gives them in different places.
What was measured:
[1] = aqueous solution; Ref: Celaya et al (2016); cited from earlier work
[2] = Isosweet determination (2-AFC) vs sucrose in acidified water, sweetness potency; assay type: in vivo, human; settings: pH = 3.2
Description: As an example, Reb AM was evaluated.

[3] = FEMA GRAS publication; cited from earlier work
[4] = Solubility characteristics and solution stability in water; assay type: physicochemical
Description: Solubility characteristics were measured as follows. Prepare the following solutions in water and stir at 700 rpm for each. Add heat if necessary at 2 minutes and 30 seconds of stirring. Using a stopwatch, determine how long it takes all powder to dissolve completely and record the temperature at which it dissolves. The following table summarizes the solubility characteristics of Rebaudiosides D, M, and AM.

Structure (SMILES): C=C1C[C@@]23CC[C@H]4[C@@](C)(CCC[C@@]4(C)C(=O)O[C@@H]4O[C@H](CO)[C@@H](O)[C@H](O)[C@H]4O)[C@@H]2CC[C@]1(O[C@@H]1O[C@H](CO)[C@@H](O)[C@H](O[C@@H]2O[C@H](CO)[C@@H](O)[C@H](O)[C@H]2O)[C@H]1O[C@@H]1O[C@H](CO)[C@@H](O)[C@H](O)[C@H]1O)C3 [Reb A, rebaudioside A]
- Solubility [1]: <0.7%
- Sweetness Equivalent (ppm) in Water ([2]; 2.5% SE): 94 ppm
- Sweetness Potency in Water ([2]; 2.5% SE): 266 x sugar equivalent
- Sweetness Equivalent (ppm) in Water ([2]; 5.0% SE): 299 ppm
- Sweetness Potency in Water ([2]; 5.0% SE): 167 x sugar equivalent
- Sweetness Perception Threshold Concentration [3]: 30 ppm

Structure (SMILES): C=C1C[C@@]23CC[C@H]4[C@@](C)(CCC[C@@]4(C)C(=O)O[C@@H]4O[C@H](CO)[C@@H](O)[C@H](O[C@@H]5O[C@H](CO)[C@@H](O)[C@H](O)[C@H]5O)[C@H]4O[C@@H]4O[C@H](CO)[C@@H](O)[C@H](O)[C@H]4O)[C@@H]2CC[C@]1(O[C@@H]1O[C@H](CO)[C@@H](O)[C@H](O[C@@H]2O[C@H](CO)[C@@H](O)[C@H](O)[C@H]2O)[C@H]1O[C@@H]1O[C@H](CO)[C@@H](O)[C@H](O)[C@H]1O)C3 [Reb M, rebaudioside M]
- Sweetness Equivalent (ppm) in Water ([2]; 2.5% SE): 84 ppm
- Sweetness Potency in Water ([2]; 2.5% SE): 298 x sugar equivalent
- Sweetness Equivalent (ppm) in Water ([2]; 5.0% SE): 209 ppm
- Sweetness Potency in Water ([2]; 5.0% SE): 239 x sugar equivalent
- Sweetness Equivalent (ppm) in Water ([2]; 7.5% SE): 418 ppm
- Sweetness Potency in Water ([2]; 7.5% SE): 179 x sugar equivalent
- Sweetness Equivalent (ppm) in Water ([2]; 10.0% SE): 832 ppm
- Sweetness Potency in Water ([2]; 10.0% SE): 90 x sugar equivalent
- Sweetness Perception Threshold Concentration [3]: 24 ppm
- Comment on solubility ([4]; Test Conc. 0.1%): Easily Soluble
- Dissolution in water (Heated), time ([4]; Test Conc. 0.1%): No heat needed
- Dissolution water (Ambient), time of agitation ([4]; Test Conc. 0.1%): 12 minutes of
- Solution after 24 hrs ([4]; Test Conc. 0.1%): Clear
- Solution after 48 hrs ([4]; Test Conc. 0.1%): Clear
- Comment on solubility ([4]; Test Conc. 0.3%): Moderately
- Dissolution in water (Heated), temperature ([4]; Test Conc. 0.3%): Heated to 99 deg C. deg. C.
- Solution after 24 hrs ([4]; Test Conc. 0.3%): Clear
- Solution after 48 hrs ([4]; Test Conc. 0.3%): Slight
- Comment on solubility ([4]; Test Conc. 0.5%): Requires
- Dissolution in water (Heated), temperature ([4]; Test Conc. 0.5%): 87 deg. C. with
- Dissolution in water (Heated), time ([4]; Test Conc. 0.5%): agitation. 16 min
- Solution after 24 hrs ([4]; Test Conc. 0.5%): Moderate
- Solubility ([4]; summary of solution stability in water): 0.3%

Structure (SMILES): C=C1C[C@@]23CC[C@H]4[C@@](C)(CCC[C@@]4(C)C(=O)O[C@@H]4O[C@H](CO)[C@@H](O)[C@H](O)[C@H]4O)[C@@H]2CC[C@]1(O[C@@H]1O[C@H](CO)[C@@H](O)[C@H](O)[C@H]1O[C@@H]1O[C@H](CO)[C@@H](O)[C@H](O)[C@H]1O)C3 [Stevioside, stevioside]
- Solubility [1]: <0.7%
